“Also recorded” adds a separate entry of the source.
What was measured:
[1] = test system: neutral sphingomyelinase (nSMase); assay: nSMase-mediated ceramide release in TNF-α-treated neuroblastomas; format: cell-based; details: neuroblastomas treated with TNF-α in conjunction with citrate or malate at 0.5 μg/ml
Experimental: Neuroblastomas were not treated (NT) or treated with tumor necrosis factor α (TNF-α), either alone or in conjunction with citrate or malate at 0.5 μg/ml.
Ceramides and ceramide metabolites are important intracellular signaling molecules which influence inflammation, proliferative and apoptotic processes, neurodegeneration, and insulin sensitivity. Elevated ceramides are associated with neurodegenerative disorders including Alzheimer's and Parkinson's disease as well as normal aging.

[2] = Tolerability of oral malate in aged rats; format: in vivo; details: 24 aged rats, 200 mg/Kg orally, voluntary consumption in water
[3] = test system: SH-SY5Y human neuroblastoma cells; assay: Intracellular malate after malate pretreatment and peroxide insult; format: cell-based
Experimental: Intracellular malate decreases 20% in the first 30 minutes following peroxide treatment and continues to slowly decrease over the rest of the time course. SH-SY5Y human neuroblastoma cells were grown to 90% confluency on 100 mm tissue culture dishes in 10% FBS supplemented DMEM, serum starved for 12 hours, and treated with 100 μM H2O2 in serum free DMEM for either 0, 15, 30, 45, 60, or 90 minutes. All treatments were performed in triplicate. Following treatment, neurons were rinsed with PBS, harvested and evaluated for total […] via abcam malate assay kit (ab83391). […] Cells were treated with 0.5 μg/mL malate in serum free DMEM for 1 hour prior to peroxide insult. Malate supplementation increased intracellular malate by nearly 50%.

[4] = test system: SH-SY5Y human neuroblastoma cells; assay: Intracellular GSH after malate pretreatment and peroxide insult; format: cell-based; details: 0.5 μg/mL malate for 1 hour prior to peroxide insult
Experimental: GSH is widely considered the cornerstone of endogenous redox defense. Intracellular concentrations of total GSH clearly decrease in response to oxidative insult, confirming GSH is actively consumed as part of the endogenous redox defense response in human neurons, specifically to produce regenerate antioxidative enzymes. […] All treatments were performed in triplicate. Following treatment, neurons were rinsed with PBS and evaluated for total GSH (excluding GSSG) via Promega GSH-Glo Glutathione Assay. The assay is based on the conversion of a lucifin derivative into lucifierin in the presence of GSH. […] Cells were treated with 0.5 μg/mL malate in serum free DMEM for 1 hour prior to peroxide insult.

Fischer F344 inbred rats = assay: Spatial memory, rewarded alternation in T-maze, aged rats; format: in vivo; details: for T-maze alternation: 200 mg/Kg in water, 6 weeks supplementation; for spatial memory vs control rats: aged F344 rats, 200 mg/Kg, T-maze
Experimental: Spatial memory was measured by alternation in a T-maze. […] Both aged groups supplemented with malic acid performed equivalently to non-impaired rats, at 85% correct alternation, or better.
24 male Fischer F344 inbred rats were evaluated at 10 months and 23 months of age. Half were provided supplemental dietary malate. Following 6 weeks supplementation, spatial memory was evaluated using a rewarded alternation procedure in a T-maze apparatus (10 trials per subject). Healthy, non-impaired, rats alternate at 85% while hippocampectomized rats incapable of encoding spatial memories alternate at chance, 50%. […] The 23 month old, control, rats were severely impaired, hardly scoring better than chance, at 57% alternation. 23 month old malate-supplemented rats alternated at 85%, a score equivalent to a young, not impaired rat. (FIG. 10).

O=C(O)CC(O)(CC(=O)O)C(=O)O [citrate, citric acid]
nSMase-mediated ceramide release / nSMase activation [1]: able to curb nSMase activation | nSMase-mediated ceramide release / nSMase activation ([1]; listed as Citrate): significantly decrease

O=C(O)CC(O)C(=O)O (stereo not shown) [malate, malic acid]
nSMase-mediated ceramide release / nSMase activation [1]: significantly decrease; also recorded: able to curb nSMase activation | ill effects observed [2]: no ill effects were observed | intracellular malate after peroxide insult ([3]; 0.5 μg/mL malate for 1 hour prior to peroxide insult): higher levels than non-treated and non-insulted cells; also recorded: prevent critical depletion of malate | increase of intracellular malate ([3]; 0.5 μg/mL malate in serum free DMEM for 1 hour): ~50% | intracellular GSH after peroxide insult [4]: higher levels of GSH than non-treated and non-insulted cells; also recorded: prevent critical depletion of GSH | intracellular GSH vs non-supplemented cells ([4]; 0-60 minutes post peroxide): significantly higher levels of GSH than non-supplemented cells; also recorded: increase intracellular pools of GSH | T-maze alternation (Fischer F344 inbred rats; 10 month old F344 rats): 92.5% | T-maze alternation (Fischer F344 inbred rats; 23 month old F344 rats): 85% | spatial memory vs control rats (Fischer F344 inbred rats): statistically significant improvement in spatial memory | spatial memory vs control rats (Fischer F344 inbred rats; listed as malic acid): significantly improves performance in spatial memory | T-maze correct alternation (Fischer F344 inbred rats; both aged groups (10 and 23 months), oral 200 mg/Kg): ≥ 85%
